# The source made the active and inactive calls. The calls are words filed in the database; no cut-off is given here.
# Columns and labels:
# Escherichia coli [1] = experiment: Antibacterial activity against Escherichia coli JW55031 harboring tolC mutation assessed as reduction in bacterial growth by CLSI based broth microdilution method; type: functional
# Staphylococcus aureus = experiment: Antibacterial activity against methicillin resistant Staphylococcus aureus subsp. aureus USA300 assessed as reduction in bacterial growth by CLSI based broth microdilution method; type: functional
# Clostridioides difficile = experiment: Antibacterial activity against Clostridium difficile BAA1870 assessed as reduction in bacterial growth by CLSI based broth microdilution method; type: functional
# Escherichia coli [2] = experiment: Antibacterial activity against Escherichia coli BW25113 assessed as reduction in bacterial growth by CLSI based broth microdilution method; type: functional
# Candida albicans [3] = experiment: Antifungal activity against Candida albicans SS5314 assessed as reduction in fungal growth by CLSI based broth microdilution method; type: functional
# Cryptococcus neoformans [4] = experiment: Antifungal activity against Cryptococcus neoformans NR48770 assessed as reduction in fungal growth incubated for 48 hrs by CLSI based broth microdilution method; type: functional
# Lactobacillus crispatus = experiment: Antibacterial activity against Lactobacillus crispatus HM-370 assessed as reduction in bacterial growth by CLSI based assay
# Nakaseomyces glabratus [5] = experiment: Antifungal activity against Candida glabrata ATCC MYA-2950 assessed as reduction in fungal growth incubated for 24 hrs by CLSI based broth microdilution method; type: functional
# Aspergillus fumigatus [6] = experiment: Antifungal activity against Aspergillus fumigatus NR 35303 assessed as reduction in fungal growth incubated for 24 hrs by CLSI based broth microdilution method; type: functional
# Pichia kudriavzevii [7] = experiment: Antifungal activity against Candida krusei CAB 396420 assessed as reduction in fungal growth incubated for 24 hrs by CLSI based broth microdilution method; type: functional
# [Candida] auris [8] = Antifungal activity against fluconazole-resistant Candida auris 384 assessed as reduction in fungal growth incubated for 24 hrs by CLSI based broth microdilution method; type: functional; conditions: Candidozyma auris
# [Candida] auris [9] = Antifungal activity against fluconazole-resistant Candida auris 381 assessed as reduction in fungal growth incubated for 24 hrs by CLSI based broth microdilution method; type: functional; conditions: Candidozyma auris
# Candida albicans [10] = experiment: Antibiofilm activity against 24 hrs preformed biofilm of Candida albicans NR29448 assessed as disruption of mature biofilm at 64 ug/ml incubated for 24 hrs by crystal violet staining based spectrophotometry relative to control; type: functional; conditions: dose 64.0 µg/ml
# Aspergillus fumigatus [11] = experiment: Antifungal activity against Aspergillus fumigatus NR 35304 assessed as reduction in fungal growth incubated for 24 hrs by CLSI based broth microdilution method; type: functional
# Candida albicans [12] = experiment: Antibiofilm activity against Candida albicans NR29448 assessed as reduction in biofilm formation at 0.5XMIC incubated for 24 hrs by crystal violet staining based assay relative to control; type: functional
# Candida albicans [13] = experiment: Fungistatic activity against Candida albicans SS5314 at 5 to 10x MIC measured for 36 hrs by time kill assay; type: functional, organism-based
# Pichia kudriavzevii [14] = experiment: Antifungal activity against Candida krusei ATCC 34135 assessed as reduction in fungal growth incubated for 24 hrs by CLSI based broth microdilution method; type: functional
# Lactobacillus gasseri = experiment: Antibacterial activity against Lactobacillus gasseri HM-400 assessed as reduction in bacterial growth by CLSI based assay
# Candida albicans [15] = experiment: Antifungal activity against Candida albicans SS5314 assessed as reduction in fungal growth incubated for 24 hrs by CLSI based broth microdilution method; type: functional
# Nakaseomyces glabratus [16] = experiment: Antifungal activity against Candida glabrata ATCC 66032 assessed as reduction in fungal growth incubated for 24 hrs by CLSI based broth microdilution method; type: functional
# [17] = test system: Cryptococcus gattii species complex; experiment: Antifungal activity against Cryptococcus gattii NR43209 assessed as reduction in fungal growth incubated for 48 hrs by CLSI based broth microdilution method; type: functional, Cryptococcus bacillisporus
# Lacticaseibacillus casei = experiment: Antibacterial activity against Lactobacillus casei HM-334 assessed as reduction in bacterial growth by CLSI based assay; type: organism-based
# Candida albicans [18] = experiment: Antifungal activity against fluconazole-resistant Candida albicans NR29448 assessed as reduction in fungal growth incubated for 24 hrs by CLSI based broth microdilution method; type: functional
# Candida parapsilosis [19] = experiment: Antifungal activity against Candida parapsilosis ATCC 22019 assessed as reduction in fungal growth incubated for 24 hrs by CLSI based broth microdilution method; type: functional; conditions: Lodderomyces parapsilosis
# [20] = test system: Cryptococcus gattii species complex; experiment: Antifungal activity against Cryptococcus gattii NR43210 assessed as reduction in fungal growth incubated for 48 hrs by CLSI based broth microdilution method; type: functional, Cryptococcus bacillisporus
# Cryptococcus neoformans [21] = experiment: Antifungal activity against Cryptococcus neoformans NR41298 assessed as reduction in fungal growth incubated for 48 hrs by CLSI based broth microdilution method; type: functional
# Candida albicans [22] = experiment: Antifungal activity against Candida albicans SS5314 assessed as reduction in fungal growth measured after 10 passages by CLSI based broth microdilution method; type: functional, organism-based
# Candida albicans [23] = experiment: Antifungal activity against Candida albicans ATCC 10231 assessed as reduction in fungal growth incubated for 24 hrs by CLSI based broth microdilution method; type: functional
# Candida parapsilosis [24] = experiment: Antifungal activity against Candida parapsilosis CAB 502638 assessed as reduction in fungal growth incubated for 24 hrs by CLSI based broth microdilution method; type: functional; conditions: Lodderomyces parapsilosis
# Cryptococcus neoformans [25] = experiment: Antifungal activity against Cryptococcus neoformans NR41300 assessed as reduction in fungal growth incubated for 48 hrs by CLSI based broth microdilution method; type: functional
# [Candida] auris [26] = Antifungal activity against fluconazole-resistant Candida auris 383 assessed as reduction in fungal growth incubated for 24 hrs by CLSI based broth microdilution method; type: functional; conditions: Candidozyma auris
molecule,measurement,setting,value
Cc1nc(-c2ccc(C(C)(C)C)cc2)sc1-c1nnc(NC[C@@H](O)CO)o1,MIC,Escherichia coli [1],> 64 µg/mL
same,MIC,Staphylococcus aureus,> 64 µg/mL
same,MIC,Clostridioides difficile,32 µg/mL
same,MIC,Escherichia coli [2],> 64 µg/mL
same,MIC,Candida albicans [3],> 64 µg/mL
Cc1nc(-c2ccc(C(C)(C)C)cc2)sc1-c1nnc(NCCCO)o1,MIC,Escherichia coli [1],> 64 µg/mL
same,MIC,Staphylococcus aureus,> 64 µg/mL
same,MIC,Clostridioides difficile,32 µg/mL
same,MIC,Escherichia coli [2],> 64 µg/mL
same,MIC,Candida albicans [3],> 64 µg/mL
CC(=O)NC[C@H]1CN(c2ccc(N3CCOCC3)c(F)c2)C(=O)O1 [LINEZOLID],MIC,Escherichia coli [1],8 µg/mL
same,MIC,Staphylococcus aureus,1 µg/mL
same,MIC,Clostridioides difficile,1 µg/mL
same,MIC,Escherichia coli [2],> 64 µg/mL
Cc1nc(-c2ccc(C(C)(C)C)cc2)sc1-c1nnc(NCCCN)o1,MIC,Escherichia coli [1],> 64 µg/mL
same,MIC,Staphylococcus aureus,> 64 µg/mL
same,MIC,Clostridioides difficile,64 µg/mL
same,MIC,Escherichia coli [2],> 64 µg/mL
same,MIC,Candida albicans [3],16 µg/mL
Cc1nc(-c2ccc(C(C)(C)C)cc2)sc1-c1nnc(N[C@H]2CC[C@H](N)CC2)o1,MIC,Escherichia coli [1],32 µg/mL
same,MIC,Staphylococcus aureus,32 µg/mL
same,MIC,Clostridioides difficile,8 µg/mL
same,MIC,Escherichia coli [2],> 64 µg/mL
same,MIC,Candida albicans [3],8 µg/mL
Cc1nc(-c2ccc(C(C)(C)C)cc2)sc1-c1nnc(NC2CCNC2)o1 (stereo not given),MIC,Escherichia coli [1],32 µg/mL
same,MIC,Staphylococcus aureus,32 µg/mL
same,MIC,Clostridioides difficile,16 µg/mL
same,MIC,Escherichia coli [2],> 64 µg/mL
same,MIC,Candida albicans [3],> 64 µg/mL
Cc1nc(-c2ccc(C(C)(C)C)cc2)sc1-c1nnc(NCCO)o1,MIC,Escherichia coli [1],> 64 µg/mL
same,MIC,Staphylococcus aureus,> 64 µg/mL
same,MIC,Clostridioides difficile,32 µg/mL
same,MIC,Escherichia coli [2],> 64 µg/mL
same,MIC,Candida albicans [3],> 64 µg/mL
GENTAMICIN,MIC,Escherichia coli [1],< 0.5 µg/mL
same,MIC,Escherichia coli [2],< 0.5 µg/mL
Cc1nc(-c2ccc(C(C)(C)C)cc2)sc1-c1nnc(N2CCC[C@H]2C(N)=O)o1,MIC,Escherichia coli [1],64 µg/mL
same,MIC,Staphylococcus aureus,> 64 µg/mL
same,MIC,Clostridioides difficile,32 µg/mL
same,MIC,Escherichia coli [2],> 64 µg/mL
same,MIC,Candida albicans [3],> 64 µg/mL
Cc1nc(-c2ccc(C(C)(C)C)cc2)sc1-c1nnc(NC(CO)CO)o1,MIC,Escherichia coli [1],> 64 µg/mL
same,MIC,Staphylococcus aureus,> 64 µg/mL
same,MIC,Clostridioides difficile,> 64 µg/mL
same,MIC,Escherichia coli [2],> 64 µg/mL
same,MIC,Candida albicans [3],> 64 µg/mL
OC(Cn1cncn1)(Cn1cncn1)c1ccc(F)cc1F [FLUCONAZOLE],MIC,Cryptococcus neoformans [4],2 µg/mL
same,MIC,Lactobacillus crispatus,> 128 µg/mL
same,MIC,Nakaseomyces glabratus [5],16 µg/mL
same,MIC,Aspergillus fumigatus [6],> 64 µg/mL
same,MIC,Pichia kudriavzevii [7],16 µg/mL
same,MIC,[Candida] auris [8],> 128 µg/mL
same,MIC,[Candida] auris [9],2 µg/mL
same,Activity,Candida albicans [10],inactive
same,MIC,Aspergillus fumigatus [11],> 64 µg/mL
same,inhibition (INH),Candida albicans [12],50%
same,Activity,Candida albicans [13],Active
same,MIC,Pichia kudriavzevii [14],16 µg/mL
same,MIC,Lactobacillus gasseri,> 128 µg/mL
same,MIC,Candida albicans [15],1 µg/mL
same,MIC,Nakaseomyces glabratus [16],8 µg/mL
same,MIC,[17],4 µg/mL
same,MIC,Lacticaseibacillus casei,> 128 µg/mL
same,MIC,Candida albicans [18],> 128 µg/mL
same,MIC,Candida parapsilosis [19],1 µg/mL
same,MIC,[20],4 µg/mL
same,MIC,Cryptococcus neoformans [21],2 µg/mL
same,Activity,Candida albicans [22],Active
same,MIC,Candida albicans [3],> 64 µg/mL
same,MIC,Candida albicans [23],1 µg/mL
same,MIC,Candida parapsilosis [24],0.5 µg/mL
same,MIC,Cryptococcus neoformans [25],1 µg/mL
same,MIC,[Candida] auris [26],128 µg/mL
Cc1nc(-c2ccc(C(C)(C)C)cc2)sc1-c1nnc(NCC(O)CO)o1 (stereo not given),MIC,Escherichia coli [1],> 64 µg/mL
same,MIC,Staphylococcus aureus,> 64 µg/mL
same,MIC,Clostridioides difficile,32 µg/mL
same,MIC,Escherichia coli [2],> 64 µg/mL
same,MIC,Candida albicans [3],> 64 µg/mL
Cc1nc(-c2ccc(C(C)(C)C)cc2)sc1-c1nnc(NCC(=N)N)o1,MIC,Escherichia coli [1],> 64 µg/mL
same,MIC,Staphylococcus aureus,> 64 µg/mL
same,MIC,Clostridioides difficile,64 µg/mL
same,MIC,Escherichia coli [2],> 64 µg/mL
same,MIC,Candida albicans [3],> 64 µg/mL
Cc1nc(-c2ccc(C(C)(C)C)cc2)sc1-c1nnc(N2CCC[C@@H]2CO)o1,MIC,Escherichia coli [1],> 64 µg/mL
same,MIC,Staphylococcus aureus,> 64 µg/mL
same,MIC,Clostridioides difficile,32 µg/mL
same,MIC,Escherichia coli [2],> 64 µg/mL
same,MIC,Candida albicans [3],> 64 µg/mL
Cc1nc(-c2ccc(C(C)(C)C)cc2)sc1-c1nnc(N2CC[C@H](N(C)C)C2)o1,MIC,Escherichia coli [1],> 64 µg/mL
same,MIC,Staphylococcus aureus,> 64 µg/mL
same,MIC,Clostridioides difficile,32 µg/mL
same,MIC,Escherichia coli [2],> 64 µg/mL
same,MIC,Candida albicans [3],> 64 µg/mL
Cc1nc(-c2ccc(C(C)(C)C)cc2)sc1-c1nnc(N2CCC[C@H]2CO)o1,MIC,Escherichia coli [1],> 64 µg/mL
same,MIC,Staphylococcus aureus,> 64 µg/mL
same,MIC,Clostridioides difficile,16 µg/mL
same,MIC,Escherichia coli [2],> 64 µg/mL
same,MIC,Candida albicans [3],> 64 µg/mL
Cc1nc(-c2ccc(C(C)(C)C)cc2)sc1-c1nnc(N2CC[C@@H](N(C)C)C2)o1,MIC,Escherichia coli [1],> 64 µg/mL
same,MIC,Staphylococcus aureus,> 64 µg/mL
same,MIC,Clostridioides difficile,> 64 µg/mL
same,MIC,Escherichia coli [2],> 64 µg/mL
same,MIC,Candida albicans [3],> 64 µg/mL
Cc1nc(-c2ccc(C(C)(C)C)cc2)sc1-c1nnc(NCC2CCCCN2)o1 (stereo not given),MIC,Escherichia coli [1],16 µg/mL
same,MIC,Staphylococcus aureus,32 µg/mL
same,MIC,Clostridioides difficile,16 µg/mL
same,MIC,Escherichia coli [2],> 64 µg/mL
same,MIC,Candida albicans [3],> 64 µg/mL
Cc1nc(-c2ccc(C(C)(C)C)cc2)sc1-c1nnc(NC[C@H](O)CO)o1,MIC,Escherichia coli [1],32 µg/mL
same,MIC,Staphylococcus aureus,> 64 µg/mL
same,MIC,Clostridioides difficile,16 µg/mL
same,MIC,Escherichia coli [2],> 64 µg/mL
same,MIC,Candida albicans [3],> 64 µg/mL
CCC(C)n1ncn(-c2ccc(N3CCN(c4ccc(OCC5COC(Cn6cncn6)(c6ccc(Cl)cc6Cl)O5)cc4)CC3)cc2)c1=O (stereo not given) [ITRACONAZOLE],MIC,Aspergillus fumigatus [6],1 µg/mL
same,MIC,Aspergillus fumigatus [11],1 µg/mL
Cc1nc(-c2ccc(C(C)(C)C)cc2)sc1-c1nnc(N2CCC[C@@H]2C(N)=O)o1,MIC,Escherichia coli [1],> 64 µg/mL
same,MIC,Staphylococcus aureus,> 64 µg/mL
same,MIC,Clostridioides difficile,32 µg/mL
same,MIC,Escherichia coli [2],> 64 µg/mL
same,MIC,Candida albicans [3],> 64 µg/mL
Cc1nc(-c2ccc(C(C)(C)C)cc2)sc1-c1nnc(N[C@@H]2CCCC[C@H]2N)o1 (relative stereo),MIC,Escherichia coli [1],> 64 µg/mL
same,MIC,Staphylococcus aureus,64 µg/mL
same,MIC,Clostridioides difficile,16 µg/mL
same,MIC,Escherichia coli [2],> 64 µg/mL
same,MIC,Candida albicans [3],64 µg/mL
Cc1nc(-c2ccc(C(C)(C)C)cc2)sc1-c1nnc(NCCN(C)C)o1,MIC,Escherichia coli [1],32 µg/mL
same,MIC,Staphylococcus aureus,64 µg/mL
same,MIC,Clostridioides difficile,16 µg/mL
same,MIC,Escherichia coli [2],> 64 µg/mL
same,MIC,Candida albicans [3],32 µg/mL
Cc1nc(-c2ccc(C(C)(C)C)cc2)sc1-c1nnc(NCCN)o1,MIC,Escherichia coli [1],> 64 µg/mL
same,MIC,Staphylococcus aureus,8 µg/mL
same,MIC,Clostridioides difficile,> 64 µg/mL
same,MIC,Escherichia coli [2],> 64 µg/mL
same,MIC,Candida albicans [3],32 µg/mL

# Reference: ChEMBL document CHEMBL4680171, “Oxadiazolylthiazoles as novel and selective antifungal agents” (Eur J Med Chem, 2020)
